Assay results from US8518953B2, “Aminopyrimidines useful as inhibitors of protein kinases” (Vertex Pharmaceuticals Incorporated, priority 2007, dated 2013).

Assays:
rats subjected to MCAO [1] = assay: Post Stroke Recovery MCAO Model: Forelimb Inhibition (Swimming Test); format: in vivo, rat; conditions: 7 and 14 days after stroke
Description: Adult male Wistar rats are pre-trained on a battery of behavioral tests including: tray reach, […], forelimb asymmetry (cylinder bracing), forelimb inhibition (swim test) (see below for detailed description of tests). Following pre-stroke behavioral assessment the rats receive surgery during which a stroke is induced. The rats are pseudo-randomly divided into 5 equal groups (n=12) ensuring an equal number of right and left strokes within each treatment group. The first group receives sham surgery with vehicle as treatment. Administration of the test compound and vehicle (dose, route, timing) is determined by the sponsor. The core body temperature is maintained at 37° C. (+/-1°). Following surgery all animals are behaviorally assessed 1, 7, and 14 d post-stroke. At the conclusion of behavioral assessment all rats undergo an MRI to determine infarct volume. Group behavioral performance and stroke volume are compared between groups using one way analysis of variance to determine therapeutic benefit of the compound in rate and extent of recovery of function following MCAO stroke. […] Rectal temperature is monitored and maintained at 37 C+/-1° C. for the duration of the surgery and until the rat is awake and mobile (approximately 3 hr). […] Inhibition of the forelimbs is assessed by filming animals during swimming. […] Only the mid 80% of the length is scored. […]

rats subjected to MCAO [2] = assay: Post Stroke Recovery MCAO Model: Gridwalk; format: in vivo, rat; conditions: 7 and 14 days after stroke
Description: Adult male Wistar rats are pre-trained on a battery of behavioral tests including: tray reach, […], forelimb asymmetry (cylinder bracing), forelimb inhibition (swim test) (see below for detailed description of tests). Following pre-stroke behavioral assessment the rats receive surgery during which a stroke is induced. The rats are pseudo-randomly divided into 5 equal groups (n=12) ensuring an equal number of right and left strokes within each treatment group. The first group receives sham surgery with vehicle as treatment. Administration of the test compound and vehicle (dose, route, timing) is determined by the sponsor. The core body temperature is maintained at 37° C. (+/-1°). Following surgery all animals are behaviorally assessed 1, 7, and 14 d post-stroke. At the conclusion of behavioral assessment all rats undergo an MRI to determine infarct volume. […] Rectal temperature is monitored and maintained at 37 C+/-1° C. for the duration of the surgery and until the rat is awake and mobile (approximately 3 hr). […] Forelimb and hindlimb coordination are measured using an apparatus that consists of two Plexiglas panels 1 m long and 25 cm wide (5 mm thick) with holes drilled 1 cm apart along one long edge. […]

## Cc1nc(-c2ccccc2Cl)nc(Nc2n[nH]c3ncc(F)cc23)c1C [Compound I-1, N-(2-(2-chlorophenyl)-5,6-dimethylpyrimidin-4-yl)-5-fluoro-1H-pyrazolo[3,4-b]pyridin-3-amine]
Rats subjected to MCAO [1]
  deficit in forelimb inhibition (swimming test): significantly ameliorated this deficit
Rats subjected to MCAO [2]
  deficit in gridwalk: significantly ameliorated this deficit
